In patent publication US20230051268A1, “USE OF L[…] TREATING INSOMNIA” (Eisai R&D Management Co., Ltd., priority 2019, published 2023):
“And” between values parts separate entries of the source, which are not always exact repeats. Identical values can stand only once. Like-named read-outs stand apart in the source and are kept apart here. Marks after values point to notes of the source that are not given here.

Tests used:
[1] = Single-dose pharmacokinetic study of lemborexant and metabolites M4, M9, M10 in subjects with mild or moderate hepatic impairment and healthy controls (plasma, LC-MS/MS); format: in vivo, human; settings: for Ratio (%) (Test/Ref) of geometric mean AUC(0-inf) / Ratio (%) (Test/Ref) of geometric mean AUC(0-t) / Ratio (%) (Test/Ref) of geometric mean Cmax: lemborexant 10 mg single dose; for half-life / AUC(0-inf) / Vd/F / Cmax / AUC(0-t) / AUCu / CL/F / CLu/F: geometric mean (% CV); for Vd/F: read-out: Vz/F
Method: A multicenter, single-dose, open-label, parallel-group study in subjects with mild or moderate hepatic impairment and matched (with regard to age [±10 years], sex, and body mass index [BMI, ±20%]) healthy subjects as controls was performed.
The primary objective of the study was to assess the effect of mild and moderate hepatic impairment on the PK of lemborexant after a single-dose administration.
Secondary objectives of the study were: to evaluate the effects of hepatic impairment on the PK of lemborexant metabolites M4, M9, and M10; to evaluate the relationship between the PK parameters of lemborexant and its metabolites and the Child-Pugh classification score, serum albumin, total bilirubin, and PT; and to assess safety and tolerability of lemborexant following a single-dose administration in subjects with mild or moderate hepatic impairment and healthy control subjects.
(§1) On Day 1, the subjects were administered a single oral 10 mg dose of lemborexant with approximately 240 mL of water in the morning after an overnight fast. No food was allowed for at least 4 hours postdose. Water was allowed as desired except for 1 hour before and after drug administration.
(§2) The blood samples for PK assessments were collected at prespecified intervals up to 312 hours postdose administration. In addition, the blood samples for plasma protein binding assessments of lemborexant were collected from each subject at 2 time points; approximately 1 hour and 24 hours postdose. The subjects were discharged on Day 14 of the study. The end of the study was the date of the last study visit for the last subject.
(§3) Blood samples (4 mL each) for PK assessments of lemborexant and its metabolites (M4, M9, and M10) were collected at predose (0 hour), 0.5, 1, 1.5, 2, 3, 4, 6, 8, 12, 24, 48, 72, 96, 120, 144, 168, 216, 264, and 312 hours postdose. In addition, blood samples (12 mL per time point) for protein binding of lemborexant and its metabolites (M4, M9, and M10) were collected at 1 and 24 hours postdose matching the PK sample collection at those time points.
(§4) Total mean plasma concentrations of lemborexant and lemborexant metabolites (M4, M9, and M10) were measured by validated liquid chromatography with tandem mass spectrometry (LC-MS/MS). Unbound lemborexant concentrations of lemborexant, M4, M9, and M10 were also measured using a similar validated LC-MS/MS method following equilibrium dialysis.

[2] = Plasma protein binding (unbound fraction) by equilibrium dialysis and LC-MS/MS, samples 1 and 24 hours postdose; format: in vitro ADME; settings: human, oral, 10 mg, lemborexant 10 mg single oral dose, geometric mean (% CV)
Method: as §2, §3, §4

[3] = Safety and tolerability assessment (TEAEs, ECGs, vital signs, laboratory tests) after single 10 mg dose; format: in vivo, human
Method: as §1
Safety was assessed by monitoring and documenting treat-emergent adverse events (TEAEs), ECGs, vital signs, weight, physical examinations, and clinical laboratory tests (urinalysis, hematology, and blood chemistry).

[4] = human, plasma, po, 10 mg, lemborexant 10 mg single oral dose, normal hepatic function (n = 8)
[5] = lemborexant 10 mg single oral dose, mild hepatic impairment (n = 7)
[6] = lemborexant 10 mg single oral dose, moderate hepatic impairment (n = 6)
[7] = lemborexant 10 mg single oral dose, normal hepatic function (n = 8)
[8] = moderate hepatic impairment, 10 mg

**Q.** With `Cc1ncc(OC[C@@]2(c3cccc(F)c3)C[C@H]2C(=O)Nc2ccc(F)cn2)c(C)n1` [lemborexant, (1R,2S)-2-(((2,4-dimethylpyrimidin-5-yl)oxy)methyl)-2-(3-fluorophenyl)-N-(5-fluoropyridin-2-yl)cyclopropanecarboxamide] as the compound, how does the “Ratio (%) (Test/Ref) of geometric mean AUC(0-inf)” value ([1]; Mild: Normal) read?
**A.** Its value is 125.03%.

**Q.** And the “Ratio (%) (Test/Ref) of geometric mean AUC(0-t)” value ([1]; Mild: Normal)?
**A.** The value was 131.91%.

**Q.** What about the “Ratio (%) (Test/Ref) of geometric mean Cmax” value ([1]; Mild: Normal) of the same compound?
**A.** Its value is 157.86%.

**Q.** And the “Ratio (%) (Test/Ref) of geometric mean AUC(0-inf)” value ([1]; Moderate: Normal)?
**A.** The value was 153.56%.

**Q.** And the “Ratio (%) (Test/Ref) of geometric mean AUC(0-t)” value ([1]; Moderate: Normal)?
**A.** The value was 149.52%.

**Q.** And the “Ratio (%) (Test/Ref) of geometric mean Cmax” value ([1]; Moderate: Normal)?
**A.** The value was 122.20%.

**Q.** What about the Tmax ([1]; human, plasma, oral, 10 mg, normal, mild and moderate cohorts, 10 mg tablet, read-out: median tmax across cohorts) of the same compound?
**A.** Its Tmax is 1 to 1.25 h.

**Q.** And the half-life ([1]; human, plasma, po, 10 mg, lemborexant 10 mg single oral dose, mild hepatic impairment (lemborexant n = 7))?
**A.** The half-life was 73.7 h.

**Q.** And the AUC(0-inf) ([1]; human, plasma, po, 10 mg, lemborexant 10 mg single oral dose, mild hepatic impairment (lemborexant n = 7), read-out: AUC(0-inf))?
**A.** Its AUC(0-inf) is 0.567 µg·h/mL.

**Q.** And the Vd/F ([1]; human, plasma, po, 10 mg, lemborexant 10 mg single oral dose, mild hepatic impairment (n = 7))?
**A.** The Vd/F was 1880 L.

**Q.** And the Cmax ([1]; human, plasma, po, 10 mg, lemborexant 10 mg single oral dose, mild hepatic impairment (n = 8))?
**A.** Its Cmax is 0.0629 µg/mL.

**Q.** What about the AUC(0-t) ([1]; human, plasma, po, 10 mg, lemborexant 10 mg single oral dose, mild hepatic impairment (n = 8), read-out: AUC(0-t)) of the same compound?
**A.** The AUC(0-t) was 0.574 µg·h/mL.

**Q.** What about the Tmax ([1]; human, plasma, po, 10 mg, lemborexant 10 mg single oral dose, mild hepatic impairment (n = 8), median (range), read-out: tmax) of the same compound?
**A.** Its Tmax is 1 h.

**Q.** And the half-life ([1]; human, plasma, po, 10 mg, lemborexant 10 mg single oral dose, moderate hepatic impairment (lemborexant n = 6))?
**A.** The half-life was 105 h.

**Q.** What about the AUC(0-inf) ([1]; human, plasma, po, 10 mg, lemborexant 10 mg single oral dose, moderate hepatic impairment (lemborexant n = 6), read-out: AUC(0-inf)) of the same compound?
**A.** The AUC(0-inf) was 0.696 µg·h/mL.

**Q.** What about the Vd/F ([1]; human, plasma, po, 10 mg, lemborexant 10 mg single oral dose, moderate hepatic impairment (n = 6)) of the same compound?
**A.** The Vd/F was 2170 L.

**Q.** And the Cmax ([1]; human, plasma, po, 10 mg, lemborexant 10 mg single oral dose, moderate hepatic impairment (n = 8))?
**A.** The Cmax was 0.0487 µg/mL.

**Q.** And the AUC(0-t) ([1]; human, plasma, po, 10 mg, lemborexant 10 mg single oral dose, moderate hepatic impairment (n = 8), read-out: AUC(0-t))?
**A.** The AUC(0-t) was 0.651 µg·h/mL.

**Q.** What about the Tmax ([1]; human, plasma, po, 10 mg, lemborexant 10 mg single oral dose, moderate hepatic impairment (n = 8), median (range), read-out: tmax) of the same compound?
**A.** The Tmax was 1 h.

**Q.** And the Cmax [1, 4]?
**A.** The Cmax was 0.0398 µg/mL.

**Q.** And the half-life [1, 4]?
**A.** The half-life was 67 h.

**Q.** And the AUC(0-inf) ([1]; human, plasma, po, 10 mg, lemborexant 10 mg single oral dose, normal hepatic function (n = 8), read-out: AUC(0-inf))?
**A.** Its AUC(0-inf) is 0.453 µg·h/mL.

**Q.** What about the AUC(0-t) ([1]; human, plasma, po, 10 mg, lemborexant 10 mg single oral dose, normal hepatic function (n = 8), read-out: AUC(0-t)) of the same compound?
**A.** The AUC(0-t) was 0.435 µg·h/mL.

**Q.** What about the Vd/F [1, 4] of the same compound?
**A.** Its Vd/F is 2130 L.

**Q.** What about the Tmax ([1]; human, plasma, po, 10 mg, lemborexant 10 mg single oral dose, normal hepatic function (n = 8), median (range), read-out: tmax) of the same compound?
**A.** Its Tmax is 1.25 h.

**Q.** And the “AUC(0-inf)” value ([1]; lemborexant 10 mg single oral dose, mild hepatic impairment (lemborexant n = 7))?
**A.** Its value is 0.567 µg·h/mL.

**Q.** What about the AUCu [1, 5] of the same compound?
**A.** Its AUCu is 34.9 (52.6)^b h * ng/mL.

**Q.** And the CL/F [1, 5]?
**A.** Its CL/F is 17.6 L/h and 17.6 (52.0)^b L/h.

**Q.** And the CLu/F [1, 5]?
**A.** The CLu/F was 287 (52.6)^b L/h.

**Q.** What about the “AUC(0-t)” value ([1]; lemborexant 10 mg single oral dose, mild hepatic impairment (n = 8)) of the same compound?
**A.** Its value is 0.574 µg·h/mL.

**Q.** What about the “AUC(0-inf)” value ([1]; lemborexant 10 mg single oral dose, moderate hepatic impairment (lemborexant n = 6)) of the same compound?
**A.** The value was 0.696 µg·h/mL.

**Q.** And the AUCu [1, 6]?
**A.** Its AUCu is 45.1 (42.6)^c h * ng/mL.

**Q.** And the CL/F [1, 6]?
**A.** The CL/F was 14.4 L/h and 14.4 (34.6)^c L/h.

**Q.** What about the CLu/F [1, 6] of the same compound?
**A.** The CLu/F was 222 (42.6)^c L/h.

**Q.** What about the “AUC(0-t)” value ([1]; lemborexant 10 mg single oral dose, moderate hepatic impairment (n = 8)) of the same compound?
**A.** The value was 0.651 µg·h/mL.

**Q.** And the AUCu [1, 7]?
**A.** Its AUCu is 27.1 (36.8) h * ng/mL.

**Q.** What about the CL/F [1, 7] of the same compound?
**A.** The CL/F was 22.1 L/h and 22.1 (33.9) L/h.

**Q.** And the “decrease of total body clearance compared with healthy subjects” value ([1]; mild hepatic impairment, 10 mg)?
**A.** Its value is 20%.

**Q.** And the “increase of AUC(0-inf) compared to healthy subjects” value ([1]; mild hepatic impairment, 10 mg)?
**A.** Its value is 25%.

**Q.** What about the “increase of Cmax compared to healthy subjects” value ([1]; mild hepatic impairment, 10 mg) of the same compound?
**A.** The value was 58%.

**Q.** What about the “exposure (geometric mean Cmax, AUC) compared with healthy control subjects” value ([1]; mild or moderate hepatic impairment, single 10-mg tablet) of the same compound?
**A.** Its value is “higher”.

**Q.** What about the “decrease of total body clearance compared with healthy subjects” value [1, 8] of the same compound?
**A.** The value was 35%.

**Q.** What about the “increase of AUC(0-inf) compared to healthy subjects” value [1, 8] of the same compound?
**A.** Its value is 54%.

**Q.** What about the “increase of Cmax compared to healthy subjects” value [1, 8] of the same compound?
**A.** The value was 22%.

**Q.** What about the “effects of mild and moderate hepatic impairment on PK (scatter plots, linear regression)” value ([1]; vs Child-Pugh score, serum albumin, total bilirubin, MELD score, PT) of the same compound?
**A.** Its value is “small and similar”.

**Q.** And the fraction unbound ([2]; mild hepatic impairment (n = 8))?
**A.** Its fraction unbound is 0.063.

**Q.** What about the fraction unbound ([2]; moderate hepatic impairment (n = 8)) of the same compound?
**A.** Its fraction unbound is 0.065.

**Q.** What about the fraction unbound ([2]; normal hepatic function (n = 8)) of the same compound?
**A.** Its fraction unbound is 0.0597.

**Q.** And the “subjects who experienced a TEAE” value ([3]; Class A (mild hepatic impairment))?
**A.** Its value is 7 (87.5%) subjects (%).

**Q.** What about the “subjects who experienced a TEAE” value ([3]; Class B (moderate hepatic impairment)) of the same compound?
**A.** Its value is 6 (75.0%) subjects (%).

**Q.** What about the “subjects who experienced a TEAE” value ([3]; Healthy Controls) of the same compound?
**A.** Its value is 7 (87.5%) subjects (%).

**Q.** And the “subjects who experienced a TEAE” value ([3]; all 24 subjects)?
**A.** Its value is 20 (83.3%) subjects (%).

**Q.** And the “TEAEs potentially related to cataplexy” value ([3]; all cohorts)?
**A.** Its value is “no TEAEs potentially related to cataplexy”.

**Q.** And the “TEAEs that led to subject discontinuation” value ([3]; all cohorts)?
**A.** Its value is “none”.

**Q.** And the “severity of TEAEs” value ([3]; all cohorts)?
**A.** The value was “mild in severity”.

**Q.** And the SAEs reported ([3]; all cohorts, single 10 mg dose)?
**A.** The SAEs reported was “No SAEs were reported”.
